Experimental findings from ChEMBL document CHEMBL1201862, “PubChem BioAssay data set” (2004) are described below.

SMILES strings stand for the structures. Activity calls are given as the source filed them.

Experiment [1] can be described thus: cytotoxicity in MITF-independent A375 cells – cell-based, CellTiter-Glo luminescence, dry powder, set 4, counter-screen for MITF inhibitor project, dose response (AID 624364).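 Further: A375 melanoma cells are MITF independent so this is a counter screen.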 It counts as functional. The note with it: A-375.
Experiment [2] in a line: MITF Measured in Cell-Based System Using Plate Reader - 2084-01_Inhibitor_Dose_DryPowder_Activity_Set6. The format is functional.
The nature of experiment [3]: growth inhibition of MALME3 cells – cell-based, CellTiter-Glo luminescence, dry powder, set 5, orthogonal assay for MITF inhibitor project, dose response (AID 651584). The format is functional. As to conditions: MALME-3.
A short description of experiment [4]: viability loss of HPDE-C7K cells – cell-based, fluorescence, HTS, primary screen (AID 431). The format is functional. The note with it: Homo sapiens.
Experiment [5] concerns the target Protein Tat (Human immunodeficiency virus type 1 group M subtype B (isolate HXB2)(HIV-1), UniProt P04608). The format is functional.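 Further: tat binding to TAR RNA read out by fluorescence polarization.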
Experiment [6] deals with Streptococcus. In words: GAS UMAA2166 growth inhibition – luminescence, BacTiterGlo, counter-screen for streptokinase expression inhibitor project, dose response (AID 1915).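 Further: potency for reduction of bacterial viability or growth.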 It counts as functional, organism-based.
The target in experiment [7] is T1, Orexin receptor type 2 (Homo sapiens, UniProt O43614).
T1 sequence (O43614 whole entry): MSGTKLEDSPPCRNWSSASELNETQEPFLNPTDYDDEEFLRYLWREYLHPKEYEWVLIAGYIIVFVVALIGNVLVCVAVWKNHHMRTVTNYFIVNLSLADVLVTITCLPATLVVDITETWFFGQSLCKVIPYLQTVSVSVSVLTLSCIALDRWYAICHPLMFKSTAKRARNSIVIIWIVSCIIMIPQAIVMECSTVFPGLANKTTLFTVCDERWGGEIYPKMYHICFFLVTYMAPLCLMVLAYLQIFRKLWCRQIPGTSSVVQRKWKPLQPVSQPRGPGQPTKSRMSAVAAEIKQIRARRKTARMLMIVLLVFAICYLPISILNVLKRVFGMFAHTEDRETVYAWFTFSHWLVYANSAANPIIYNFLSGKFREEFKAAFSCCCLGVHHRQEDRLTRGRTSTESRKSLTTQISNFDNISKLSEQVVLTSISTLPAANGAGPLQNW
Description: Counterscreen assay for antagonists of the orexin 1 receptor (OX1R; HCRTR1): Homogeneous Time Resolved Fluorescence (HTRF)-based cell-based dose response assay for antagonists of the orexin 2 receptor (OX2R; HCRTR2), run by assay provider. It counts as functional.

The nature of experiment [8]: Counterscreen for antagonists of the orexin 1 receptor (OX1R; HCRTR1): Fluorescence-based cell-based high throughput dose response assay to identify antagonists of the parental CHO cell line. [Related pubchem assays (depositor defined):AID434989, AID435008, AID463079, AID485270, AID492963, AID492964, AID492965, AID493232, AID504699, AID504701]. It counts as functional.

The target in experiment [9] is T1, Orexin receptor type 2. Description: Counterscreen assay for antagonists of the orexin 1 receptor (OX1R; HCRTR1): Fluorescence-based cell-based dose response assay for antagonists of the orexin 2 receptor (OX2R; HCRTR2), run by assay provider. It counts as functional.
Experiment [10] deals with Misshapen-like kinase 1 (Homo sapiens, UniProt Q8N4C8). The format is functional.
For experiment [11], the target named is Tyrosine-protein kinase JAK3 (Homo sapiens, UniProt P52333). It counts as functional.
Experiment [12] has as its target Serine/threonine-protein kinase DCLK1 (Homo sapiens, UniProt O15075). The format is functional.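 Further: affinity for DCLK1 (listed as DCAMKL1) measured as one member of a kinome-wide kinase profiling panel.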
Experiment [13] deals with cAMP-dependent protein kinase catalytic subunit alpha (Homo sapiens, UniProt P17612). The format is functional.
For experiment [14], the target named is RAC-alpha serine/threonine-protein kinase (Homo sapiens, UniProt P31749). It counts as functional.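 Further: AKT1 affinity measured as one member of a kinome-wide kinase profiling panel.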
Experiment [15] concerns the target Leucine-rich repeat serine/threonine-protein kinase 2 (Homo sapiens, UniProt Q5S007). The format is functional.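 Further: value from a broad kinome-wide panel profiling study in which LRRK2 was one of the kinases tested.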
For experiment [16], the target named is Receptor tyrosine-protein kinase erbB-4 (Homo sapiens, UniProt Q15303). The format is functional.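 Further: ERBB4 member of a kinome-wide kinase profiling panel.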
The target of experiment [17] is MAP kinase-activated protein kinase 5 (Homo sapiens, UniProt Q8IW41). It counts as functional.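 Further: measured as one member of a kinome panel.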
Experiment [18] has as its target MAP kinase-activated protein kinase 2 (Homo sapiens, UniProt P49137). It counts as functional.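 Further: measured as one member of a kinome-wide kinase panel.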
The target in experiment [19] is Tyrosine-protein kinase Srms (Homo sapiens, UniProt Q9H3Y6). The format is functional.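 Further: SRMS measured as one member of a kinome-wide kinase profiling panel.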
Experiment [20] has as its target Mitogen-activated protein kinase kinase kinase kinase 5 (Homo sapiens, UniProt Q9Y4K4). The format is functional.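 Further: measured as one member of a kinome-spanning kinase panel.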
Experiment [21] concerns the target Tyrosine-protein kinase Fyn (Homo sapiens, UniProt P06241). It counts as functional.
Experiment [22] addresses Tyrosine-protein kinase FRK (Homo sapiens, UniProt P42685). It counts as functional.
Experiment [23] deals with Dual specificity tyrosine-phosphorylation-regulated kinase 1A (Homo sapiens, UniProt Q13627). It counts as functional.
Experiment [24] has as its target Serine/threonine-protein kinase PAK 1 (Homo sapiens, UniProt Q13153). It counts as functional.
Experiment [25] has as its target Aurora kinase B (Homo sapiens, UniProt Q96GD4). It counts as functional.
The target of experiment [26] is Calcium/calmodulin-dependent protein kinase type II subunit gamma (Homo sapiens, UniProt Q13555). It counts as functional.
In experiment [27] the target is Homeodomain-interacting protein kinase 4 (Homo sapiens, UniProt Q8NE63). The format is functional.
Experiment [28] addresses Receptor-type tyrosine-protein kinase FLT3 (Homo sapiens, UniProt P36888). The format is functional.
Experiment [29] has as its target Serine/threonine-protein kinase D2 (Homo sapiens, UniProt Q9BZL6). The format is functional.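 Further: measured against PRKD2 as one member of a kinome-wide kinase profiling panel.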
For experiment [30], the target named is ALK tyrosine kinase receptor (Homo sapiens, UniProt Q9UM73). It counts as functional.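 Further: ALK tested as one member of a kinase panel screen.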
In experiment [31] the target is Megakaryocyte-associated tyrosine-protein kinase (Homo sapiens, UniProt P42679). It counts as functional.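 Further: affinity measured as one member of a kinase panel (Navigating the Kinome) against MATK.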
The target in experiment [32] is Interleukin-1 receptor-associated kinase 4 (Homo sapiens, UniProt Q9NWZ3). The format is functional.
In experiment [33] the target is Ephrin type-A receptor 2 (Homo sapiens, UniProt P29317). The format is functional.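 Further: EPHA2 tested as one member of a kinome-wide kinase panel.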
Experiment [34] deals with Maternal embryonic leucine zipper kinase (Homo sapiens, UniProt Q14680). The format is functional.

Chain of Homeodomain-interacting protein kinase 4 (Q8NE63 whole entry): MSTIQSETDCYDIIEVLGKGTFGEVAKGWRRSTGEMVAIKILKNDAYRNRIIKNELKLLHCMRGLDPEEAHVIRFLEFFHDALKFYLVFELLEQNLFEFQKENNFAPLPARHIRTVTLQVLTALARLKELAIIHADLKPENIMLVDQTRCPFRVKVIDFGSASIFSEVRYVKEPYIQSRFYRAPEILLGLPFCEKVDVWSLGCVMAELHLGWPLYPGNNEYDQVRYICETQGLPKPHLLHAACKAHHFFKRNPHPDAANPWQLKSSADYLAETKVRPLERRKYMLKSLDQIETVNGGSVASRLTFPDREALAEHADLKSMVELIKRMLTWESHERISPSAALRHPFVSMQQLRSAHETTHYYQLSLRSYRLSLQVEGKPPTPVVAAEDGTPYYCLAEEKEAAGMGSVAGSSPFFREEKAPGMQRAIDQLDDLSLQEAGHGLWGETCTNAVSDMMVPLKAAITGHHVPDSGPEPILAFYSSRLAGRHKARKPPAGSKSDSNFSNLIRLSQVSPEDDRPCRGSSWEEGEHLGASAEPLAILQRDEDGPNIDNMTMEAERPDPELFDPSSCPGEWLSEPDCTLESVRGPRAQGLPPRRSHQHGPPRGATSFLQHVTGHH
Chain of Tyrosine-protein kinase FRK (P42685 whole entry): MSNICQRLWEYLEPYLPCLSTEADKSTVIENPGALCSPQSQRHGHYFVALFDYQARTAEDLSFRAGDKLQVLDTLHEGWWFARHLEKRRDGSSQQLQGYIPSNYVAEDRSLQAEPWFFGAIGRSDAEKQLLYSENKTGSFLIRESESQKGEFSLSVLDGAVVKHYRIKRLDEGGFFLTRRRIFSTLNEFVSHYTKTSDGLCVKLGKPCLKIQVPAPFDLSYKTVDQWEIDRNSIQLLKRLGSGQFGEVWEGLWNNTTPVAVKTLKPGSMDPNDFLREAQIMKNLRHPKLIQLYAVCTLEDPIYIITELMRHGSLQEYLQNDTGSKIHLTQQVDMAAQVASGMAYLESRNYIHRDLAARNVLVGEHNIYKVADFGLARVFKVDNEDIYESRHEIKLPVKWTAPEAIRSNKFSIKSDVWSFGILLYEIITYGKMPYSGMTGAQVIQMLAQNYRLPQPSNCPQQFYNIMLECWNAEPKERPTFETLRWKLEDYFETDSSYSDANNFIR
Chain of MAP kinase-activated protein kinase 2 (P49137 whole entry): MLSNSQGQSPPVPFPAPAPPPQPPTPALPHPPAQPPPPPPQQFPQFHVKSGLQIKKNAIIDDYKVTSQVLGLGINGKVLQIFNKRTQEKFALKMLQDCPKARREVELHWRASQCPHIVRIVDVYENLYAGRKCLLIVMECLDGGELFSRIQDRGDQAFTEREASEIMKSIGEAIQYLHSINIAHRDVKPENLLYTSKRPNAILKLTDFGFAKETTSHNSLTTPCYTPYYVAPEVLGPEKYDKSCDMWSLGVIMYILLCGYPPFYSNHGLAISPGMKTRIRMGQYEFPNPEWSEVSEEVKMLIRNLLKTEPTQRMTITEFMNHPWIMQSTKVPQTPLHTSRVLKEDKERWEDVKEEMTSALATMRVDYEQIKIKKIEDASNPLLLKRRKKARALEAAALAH
Chain of Serine/threonine-protein kinase PAK 1 (Q13153 whole entry): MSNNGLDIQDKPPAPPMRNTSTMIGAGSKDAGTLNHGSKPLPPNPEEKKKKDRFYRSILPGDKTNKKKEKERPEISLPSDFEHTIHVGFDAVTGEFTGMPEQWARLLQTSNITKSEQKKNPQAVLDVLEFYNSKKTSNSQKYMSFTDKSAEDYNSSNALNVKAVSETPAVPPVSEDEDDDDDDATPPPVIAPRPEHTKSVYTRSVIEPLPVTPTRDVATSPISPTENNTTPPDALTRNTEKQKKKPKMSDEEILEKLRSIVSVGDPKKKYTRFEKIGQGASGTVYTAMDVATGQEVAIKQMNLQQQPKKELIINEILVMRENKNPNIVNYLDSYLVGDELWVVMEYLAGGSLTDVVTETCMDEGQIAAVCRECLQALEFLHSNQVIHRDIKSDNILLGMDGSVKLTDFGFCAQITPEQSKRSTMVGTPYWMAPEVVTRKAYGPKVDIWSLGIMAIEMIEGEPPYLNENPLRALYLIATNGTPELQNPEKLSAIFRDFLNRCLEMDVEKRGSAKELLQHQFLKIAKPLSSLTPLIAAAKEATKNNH
Chain of Ephrin type-A receptor 2 (P29317 whole entry): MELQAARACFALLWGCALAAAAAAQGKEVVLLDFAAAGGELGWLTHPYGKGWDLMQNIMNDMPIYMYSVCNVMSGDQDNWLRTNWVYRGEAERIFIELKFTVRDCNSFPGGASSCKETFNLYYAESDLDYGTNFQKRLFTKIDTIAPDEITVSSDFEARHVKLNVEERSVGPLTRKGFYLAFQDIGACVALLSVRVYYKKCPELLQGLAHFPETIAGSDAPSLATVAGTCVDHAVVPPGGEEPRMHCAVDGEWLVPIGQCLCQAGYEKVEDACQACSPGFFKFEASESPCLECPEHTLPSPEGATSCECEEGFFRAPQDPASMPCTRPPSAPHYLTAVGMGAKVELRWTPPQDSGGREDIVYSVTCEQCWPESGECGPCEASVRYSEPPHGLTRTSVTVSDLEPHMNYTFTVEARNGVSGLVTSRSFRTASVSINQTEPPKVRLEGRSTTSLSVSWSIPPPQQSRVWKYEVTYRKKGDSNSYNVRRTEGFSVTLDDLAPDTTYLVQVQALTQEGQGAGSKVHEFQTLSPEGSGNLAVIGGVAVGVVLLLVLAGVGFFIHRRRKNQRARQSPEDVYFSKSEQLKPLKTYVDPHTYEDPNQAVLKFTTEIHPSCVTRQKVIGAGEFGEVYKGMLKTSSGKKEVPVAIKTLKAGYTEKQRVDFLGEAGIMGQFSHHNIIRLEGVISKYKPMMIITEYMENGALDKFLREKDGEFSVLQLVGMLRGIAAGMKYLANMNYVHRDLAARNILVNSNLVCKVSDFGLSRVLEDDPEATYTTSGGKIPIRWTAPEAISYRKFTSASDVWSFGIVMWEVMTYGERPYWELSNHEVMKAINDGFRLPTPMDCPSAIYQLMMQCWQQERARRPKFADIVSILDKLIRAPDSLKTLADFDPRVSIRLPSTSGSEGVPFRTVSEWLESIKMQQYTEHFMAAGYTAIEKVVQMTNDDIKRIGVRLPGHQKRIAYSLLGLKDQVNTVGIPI
Chain of Mitogen-activated protein kinase kinase kinase kinase 5 (Q9Y4K4 whole entry): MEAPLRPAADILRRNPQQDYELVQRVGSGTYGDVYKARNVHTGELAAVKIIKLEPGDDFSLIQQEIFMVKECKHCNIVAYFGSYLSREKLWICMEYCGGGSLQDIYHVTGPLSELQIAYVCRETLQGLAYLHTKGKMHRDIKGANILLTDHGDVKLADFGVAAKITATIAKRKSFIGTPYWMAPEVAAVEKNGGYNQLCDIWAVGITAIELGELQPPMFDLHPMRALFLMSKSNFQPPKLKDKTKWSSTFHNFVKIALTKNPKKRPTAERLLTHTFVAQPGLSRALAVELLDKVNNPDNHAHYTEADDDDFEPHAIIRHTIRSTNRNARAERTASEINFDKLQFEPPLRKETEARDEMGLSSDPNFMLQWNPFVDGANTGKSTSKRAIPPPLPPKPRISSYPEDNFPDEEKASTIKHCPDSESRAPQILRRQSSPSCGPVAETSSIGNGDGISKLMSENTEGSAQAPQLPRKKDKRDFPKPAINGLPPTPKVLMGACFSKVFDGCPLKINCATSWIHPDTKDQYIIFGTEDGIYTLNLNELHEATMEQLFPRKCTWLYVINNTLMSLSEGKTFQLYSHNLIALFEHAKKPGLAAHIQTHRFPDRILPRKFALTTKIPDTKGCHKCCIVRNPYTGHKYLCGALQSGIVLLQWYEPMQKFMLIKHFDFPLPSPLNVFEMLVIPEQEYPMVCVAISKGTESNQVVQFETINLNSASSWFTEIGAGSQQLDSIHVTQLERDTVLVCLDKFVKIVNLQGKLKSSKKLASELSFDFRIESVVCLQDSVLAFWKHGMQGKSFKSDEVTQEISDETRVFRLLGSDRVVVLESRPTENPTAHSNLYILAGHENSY
Chain of Serine/threonine-protein kinase DCLK1 (O15075 whole entry): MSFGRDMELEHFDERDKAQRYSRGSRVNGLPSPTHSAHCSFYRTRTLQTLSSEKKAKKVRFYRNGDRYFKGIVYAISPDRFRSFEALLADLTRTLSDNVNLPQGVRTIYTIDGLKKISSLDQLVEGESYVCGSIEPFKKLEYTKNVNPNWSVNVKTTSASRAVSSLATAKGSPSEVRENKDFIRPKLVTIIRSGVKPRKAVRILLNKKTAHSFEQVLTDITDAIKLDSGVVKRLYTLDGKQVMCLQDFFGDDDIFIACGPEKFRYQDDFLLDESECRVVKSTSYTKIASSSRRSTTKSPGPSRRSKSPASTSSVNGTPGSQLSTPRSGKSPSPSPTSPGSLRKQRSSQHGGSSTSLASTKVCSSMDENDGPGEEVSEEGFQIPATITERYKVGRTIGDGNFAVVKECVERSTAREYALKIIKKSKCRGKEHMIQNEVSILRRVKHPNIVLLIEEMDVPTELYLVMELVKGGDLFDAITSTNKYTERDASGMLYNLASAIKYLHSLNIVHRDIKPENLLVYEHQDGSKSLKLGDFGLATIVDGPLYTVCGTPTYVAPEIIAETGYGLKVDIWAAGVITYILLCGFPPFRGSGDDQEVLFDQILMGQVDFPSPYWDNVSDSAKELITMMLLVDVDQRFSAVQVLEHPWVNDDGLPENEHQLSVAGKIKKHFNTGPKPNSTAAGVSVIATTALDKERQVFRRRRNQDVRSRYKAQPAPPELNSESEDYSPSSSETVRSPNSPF
Chain of Protein Tat (P04608 whole entry): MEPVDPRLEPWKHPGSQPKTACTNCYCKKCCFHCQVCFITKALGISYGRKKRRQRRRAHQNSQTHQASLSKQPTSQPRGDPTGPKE

For `C=CCNC1=C(Cl)C(=O)c2ccccc2C1=O`, the AC50 is > 70 µM (inactive) in [1], 1.56 µM (active) in [2] and 9.99 µM (active) in experiment [3].
For the compound `CCOC(=O)C(C(=O)OCC)c1cc(Br)c2noc3c2c1C(=O)c1ccccc1-3`, the EC50 is 3.06 µM (active) in experiment [4] and > 150 µM (not active) in [6]. For the same compound, the IC50 in [5] was 6.44 µM (inconclusive).
On to `CN(C)c1ccc(-c2nnc(-c3cccs3)o2)cc1`, for which the values for the IC50 in experiment [7], in experiment [8] and in [9] were > 50 µM (inactive), > 49.7 µM (inactive) and > 88.8 µM (inactive), respectively.
`COc1ccc(C(=O)Nc2n[nH]c3ccc(-c4cn(Cc5ccccc5)nn4)cc23)cc1OC`: the Ki in experiment [10] is 0.251 µM (active); in [11], 1 µM (active); in [12], 5.01 µM (active); in experiment [13] it was 0.501 µM (active); in [14], 6.31 µM (active); in experiment [15] it was 0.501 µM (active). The Ki was > 3.98 µM (inactive) in [16]; 1.26 µM (active) in experiment [17]; 2 µM (active) in [18]; > 1.58 µM (inactive) in experiment [19]; 0.501 µM (active) in experiment [20]; 0.251 µM (active) in [21]. For the same compound, the Ki was 0.0794 µM (active) in [22]; 0.1 µM (active) in [23]; > 10 µM (inactive) in experiment [24]; 0.2 µM (active) in experiment [25]; 0.316 µM (active) in experiment [26]; 1 µM (active) in experiment [27]. Moreover, the Ki is > 1.26 µM (inactive) in experiment [28]; 2 µM (active) in experiment [29]; > 6.31 µM (inactive) in experiment [30]; > 2 µM (inactive) in experiment [31]; 2.51 µM (active) in experiment [32]; > 3.16 µM (inactive) in experiment [33]. Also, in [34], the Ki was 0.398 µM (active).
